# Test system: 377384-186-R-J1-PDC complex spheroid viability
# Assay: Anticancer human tumor 377384-186-R-J1-PDC patient-derived pancreatic carcinoma cell line growth inhibition [CLK]
# Conditions: for viability, T/C: stronger effect = lower value
# From the text: A high-throughput screen of multi-cell type tumor spheroids was designed to identify active combinations of […] and targeted small molecules. Complex spheroids include a stromal component modeled by human endothelial cells (HUVEC) and fibroblasts modeled by human mesenchymal stem cells (MSCs). The concentration ranges selected for each drug and investigational agent were based upon clinically achievable concentrations if the clinical Cmax of the agent was known.
# Compounds. The drugs and investigational agents: cirtuvivint (SM08502; NSC835563), CC-671 (NSC850746), vemurafenib (NSC761431), tapotoclax (NSC804041), sotorasib (NSC818433), adagrasib (NSC831453), MRTX-1133 (NSC836407), BAY2416964 (NSC825713), copanlisib (NSC816437), inavolisib (NSC800729), abemaciclib (NSC768073), osimertinib (NSC779217), entinostat (NSC756642), eltanexor (KPT-8602, NSC794443), venetoclax (NSC766270), ceralasertib (NSC777638), bortezomib (NSC756655), olaparib (NSC753686), talazoparib (NSC767125), alisertib (NSC759677), peposertib (NSC802822), gemcitabine (NSC613327), 5-fluorouracil (NSC19893), SN-38 (NSC673596), oxaliplatin (NSC266046), paclitaxel (NSC125973), and doxorubicin (NSC123127), were obtained from the National Cancer Institute (NCI) Developmental Therapeutics Program Chemical Repository. The FDA-approved anticancer drug set is available from the Developmental Therapeutics Program at https://dtp.cancer.gov/organization/dscb/obtaining/available plates.htm. […] The stock solutions were prepared in dimethyl sulfoxide (DMSO, Sigma-Aldrich, St. Louis, MO, cat. D2650), except for the platinum complexes which were prepared in saline (Quality Biological, Gaithersburg, MD, cat. 114-055-101), at 800-fold the tested concentration and stored at -70 degrees C prior to their use. All drugs and investigational agents were tested over a range starting from a high concentration at or near the clinical Cmax and decreasing in half-log increments. If the clinical Cmax for an agent had not been determined, the highest concentration tested was 10 microM.
# Cell Culture. All cells were maintained in an incubator at 37 degrees C and 5% CO2 with 95% humidity. The PDC lines were cultured according to standard operating procedures established by the NCI PDMR. Briefly, all PDCs were thawed and cultured in Matrigel-coated flasks prepared with a working solution of 1X Ham's F-12 nutrient mix, without supplementation (Invitrogen, Waltham, MA, cat. 11765054), 100 U/mL penicillin-streptomycin (Invitrogen, cat. 15140122), and 2.5% Matrigel (Corning Inc., Corning, NY, cat. 354248) for the first three passages. The 947758-054-R-J2-PDC line was cultured in 6B/Colon 1A media, which includes advanced DMEM/F-12 (Thermo Fisher Scientific, cat. 12634028), 10 mM HEPES (Thermo Fisher Scientific, cat. 15630080), 1X GlutaMAX supplement (Thermo Fisher Scientific, cat. 35050061), 0.1 mg/mL primocin (InvivoGen, cat. ant-pm-2), 10% defined fetal bovine serum, heat inactivated (HyClone Laboratories Inc., cat. SH30070.03HI), 1.25 mM N-Acetyl-L-cysteine (Sigma-Aldrich, cat. A9165), 10 mM nicotinamide (Sigma-Aldrich, cat. N0636), 1X B-27 supplement (Thermo Fisher Scientific, cat. 17504044), 1X N-2 supplement (Thermo Fisher Scientific, cat. 17502048), and 10 microM Y-27632 dihydrochloride (Tocris Bioscience, cat. 1254). The 876862-298-R-J1-PDC was cultured in 6E media, which includes all 6B/Colon 1A media components plus 50% L-WRN conditioned media (ATCC, cat. CRL-3276), 50 ng/mL recombinant human EGF recombinant protein (hEGF; Thermo Fisher Scientific, cat. PHG0311), 10 ng/mL recombinant human fibroblast growth factor 10 (hGFG-10; PeproTech, cat. 100-26), 1 ng/mL recombinant human fibroblast growth factor 2 (hFGF-2; PeproTech, cat. 100-18B), and 1 µM prostaglandin E2 (PGE2; Tocris, cat. 2296). The 227483-062-R1-J1-PDC line was cultured in Panc media, containing all 6E components except hFGF-2, with the addition of 500 nM SB-431542 (Selleckchem, cat. S1067) and 10 nM gastrin (Tocris, cat. 3006). […]
# 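Note: spheroids exposed to agents for 7 days before reading.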
# 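Throughout, for viability, T/C: luminescence signal used as a stand-in for viable cells.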
smiles,measurement,setting,value
CNC(=O)c1ccc(Nc2nc(OC3CCCC3)c3c(-c4ccc5nc(C)oc5c4)c[nH]c3n2)c(OC)c1,"viability, T/C",compound 0.0316 µM,102% [middle of 12 runs]
same,"viability, T/C",compound 0.1 µM,57.2% [middle of 12 runs]
same,"viability, T/C",compound 0.316 µM,20.9% [middle of 12 runs]
same,"viability, T/C",compound 1 µM,20.4% [middle of 12 runs]
same,"viability, T/C",compound 3.16 µM,21% [middle of 12 runs]
same,"viability, T/C",compound 10 µM,21.6% [middle of 12 runs]
same,IC50,"compound alone, run of 08/01/2023",130 nM [middle of 11 runs]
CC(CO)NC(=O)c1cc(-c2ccc(Cl)cc2)nn(-c2cnn(C)c2)c1=O (centres undefined) + CNC(=O)c1ccc(Nc2nc(OC3CCCC3)c3c(-c4ccc5nc(C)oc5c4)c[nH]c3n2)c(OC)c1,IC50,"curve of first compound, second compound 0.0316 µM",9170 nM
same,IC50,"curve of first compound, second compound 0.1 µM",3300 nM
same,IC50,"curve of first compound, second compound 0.316 µM",< 31.6 nM
same,IC50,"curve of first compound, second compound 1 µM",< 31.6 nM
same,IC50,"curve of first compound, second compound 3.16 µM",< 31.6 nM
same,IC50,"curve of first compound, second compound 10 µM",< 31.6 nM
same,"viability, T/C","second compound 0.0316 µM, first compound 0.0316 µM",102%
same,"viability, T/C","second compound 0.0316 µM, first compound 0.1 µM",120%
same,"viability, T/C","second compound 0.0316 µM, first compound 0.316 µM",117%
same,"viability, T/C","second compound 0.0316 µM, first compound 1 µM",106%
same,"viability, T/C","second compound 0.0316 µM, first compound 3.16 µM",85.1%
same,"viability, T/C","second compound 0.0316 µM, first compound 10 µM",47.1%
same,"viability, T/C","second compound 0.1 µM, first compound 0.0316 µM",64.1%
same,"viability, T/C","second compound 0.1 µM, first compound 0.1 µM",75.6%
same,"viability, T/C","second compound 0.1 µM, first compound 0.316 µM",55.4%
same,"viability, T/C","second compound 0.1 µM, first compound 1 µM",58.4%
same,"viability, T/C","second compound 0.1 µM, first compound 3.16 µM",53.1%
same,"viability, T/C","second compound 0.1 µM, first compound 10 µM",35.9%
same,"viability, T/C","second compound 0.316 µM, first compound 0.0316 µM",23.6%
same,"viability, T/C","second compound 0.316 µM, first compound 0.1 µM",25.4%
same,"viability, T/C","second compound 0.316 µM, first compound 0.316 µM",24.7%
same,"viability, T/C","second compound 0.316 µM, first compound 1 µM",22.7%
same,"viability, T/C","second compound 0.316 µM, first compound 3.16 µM",24.4%
same,"viability, T/C","second compound 0.316 µM, first compound 10 µM",20.5%
same,"viability, T/C","second compound 1 µM, first compound 0.0316 µM",26.8%
same,"viability, T/C","second compound 1 µM, first compound 0.1 µM",20.7%
same,"viability, T/C","second compound 1 µM, first compound 0.316 µM",21%
same,"viability, T/C","second compound 1 µM, first compound 1 µM",22%
same,"viability, T/C","second compound 1 µM, first compound 3.16 µM",20.5%
same,"viability, T/C","second compound 1 µM, first compound 10 µM",17.8%
same,"viability, T/C","second compound 3.16 µM, first compound 0.0316 µM",21%
same,"viability, T/C","second compound 3.16 µM, first compound 0.1 µM",21.2%
same,"viability, T/C","second compound 3.16 µM, first compound 0.316 µM",21.7%
same,"viability, T/C","second compound 3.16 µM, first compound 1 µM",23.9%
same,"viability, T/C","second compound 3.16 µM, first compound 3.16 µM",22.3%
same,"viability, T/C","second compound 3.16 µM, first compound 10 µM",19.6%
same,"viability, T/C","second compound 10 µM, first compound 0.0316 µM",22.5%
same,"viability, T/C","second compound 10 µM, first compound 0.1 µM",21.3%
same,"viability, T/C","second compound 10 µM, first compound 0.316 µM",20.4%
same,"viability, T/C","second compound 10 µM, first compound 1 µM",19.9%
same,"viability, T/C","second compound 10 µM, first compound 3.16 µM",18.1%
same,"viability, T/C","second compound 10 µM, first compound 10 µM",19.1%
